{"source": "patent US20040171664A1", "about": "“Compositions of cyclooxygenase-2 selective inhibitors and selective serotonin reuptake inhibitors for the treatment or prevention of a vaso-occlusive event” (Pharmacia Corporation, priority 2002, published 2004)", "origin": "cited, not measured here", "key": {"[1]": {"settings": "both depressed and nondepressed patients"}, "[2]": {"test_system": "coronary intimal proliferation", "settings": "oral administration, swine model of restenosis"}, "[3]": {"settings": "single dose intravenous pretreatment before coronary stenting"}, "[4]": {"test_system": "vascular smooth muscle cells", "settings": "in vitro"}, "restenosis": {"test_system": "restenosis", "settings": "orally administered, stent implanted pig arteries"}, "platelet activation": {"test_system": "platelet activation", "settings": "Pollock et al. 2000"}}}
{"smiles": "CNCCC=C1c2ccccc2CCc2ccccc21", "note": "[nortriptyline]", "values": [{"measurement": "survival of stroke patients", "setting": "[1]", "value": "increased the survival"}]}
{"smiles": "CN(C)CCCO[C@@H]1[C@H]2OC(C)(C)O[C@H]2O[C@@H]1[C@H](O)CO.Cl", "note": "[aniprilose hydrochloride]", "values": [{"measurement": "coronary intimal proliferation", "setting": "[2]", "value": "did not prevent"}]}
{"smiles": "CNCCC(Oc1ccc(C(F)(F)F)cc1)c1ccccc1", "note": "(stereo not shown) [fluoxetine]", "values": [{"measurement": "survival of stroke patients", "setting": "[1]", "value": "increased the survival"}]}
{"smiles": "C[C@H]1C[C@@H]2[C@H]([C@@H](O)C[C@@]3(C)[C@H]2CC[C@]3(O)C(=O)CO)[C@@]2(C)C=CC(=O)C=C12", "note": "[methylpridnisolone]", "values": [{"measurement": "change in minimal lumen diameter at 6 months", "setting": "[3]", "value": "no effect"}]}
{"smiles": "COc1cc(/C=C/C(=O)CC(=O)/C=C/c2ccc(O)c(OC)c2)ccc1O", "note": "[curcumin]", "values": [{"measurement": "proliferation of vascular smooth muscle cells", "setting": "[4]", "value": "reduced"}]}
{"smiles": "COc1ccc(C=CC(=O)Nc2ccccc2C(=O)O)cc1OC", "note": "[tranilast, N-(3,4-dimethoxycinnamoyl) anthranilic acid]", "values": [{"measurement": "rate of restenosis", "setting": "restenosis", "value": "lower rate"}]}
{"smiles": "CN[C@H]1CC[C@@H](c2ccc(Cl)c(Cl)c2)c2ccccc21", "note": "[sertraline]", "values": [{"measurement": "preventing platelet activation", "setting": "platelet activation", "value": "particularly effective"}]}
